PubChem BioAssay (NCI)
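Cells were grown in 96-well plates and exposed to each compound for 48 hours at five concentrations; endpoints were interpolated linearly between bracketing concentrations, or set to the highest concentration if not reached. GI50 marks 50% less growth. The concentration for full growth arrest is given as TGI.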

Columns and labels:
Test in all cases: inhibition of tumour cell growth, NCI panel, 48 h
UACC-62 melanoma = system: UACC-62 melanoma
LOX IMVI melanoma = system: LOX IMVI melanoma
BT-549 breast = system: BT-549 breast
CCRF-CEM leukemia = system: CCRF-CEM leukemia
A549 NSCLC = system: A549 NSCLC
HL-60(TB) leukemia = system: HL-60(TB) leukemia
K-562 leukemia = system: K-562 leukemia
NCI-H460 lung = system: NCI-H460 lung
SF-295 CNS = system: SF-295 CNS
M14 melanoma = system: M14 melanoma
UACC-257 melanoma = system: UACC-257 melanoma
OVCAR-8 ovarian = system: OVCAR-8 ovarian
HT29 colon = system: HT29 colon
UO-31 renal = system: UO-31 renal
U251 CNS = system: U251 CNS
HOP-92 NSCLC = system: HOP-92 NSCLC
TK-10 renal = system: TK-10 renal
HCT-116 colon = system: HCT-116 colon
RXF 393 renal = system: RXF 393 renal
SK-MEL-28 melanoma = system: SK-MEL-28 melanoma
KM12 colon = system: KM12 colon
OVCAR-5 ovarian = system: OVCAR-5 ovarian
SF-268 CNS = system: SF-268 CNS
786-0 renal = system: 786-0 renal
SNB-19 CNS = system: SNB-19 CNS
NCI-H522 lung = system: NCI-H522 lung
NCI/ADR-RES ovarian = system: NCI/ADR-RES ovarian
HCT-15 colon = system: HCT-15 colon
HCC-2998 colon = system: HCC-2998 colon
PC-3 prostate = system: PC-3 prostate
SN12C renal = system: SN12C renal
NCI-H226 lung = system: NCI-H226 lung
SW-620 colon = system: SW-620 colon
IGROV1 ovarian = system: IGROV1 ovarian
ACHN renal = system: ACHN renal
HS 578T breast = system: HS 578T breast
CAKI-1 renal = system: CAKI-1 renal
MDA-MB-435 = system: MDA-MB-435
EKVX NSCLC = system: EKVX NSCLC
T-47D breast = system: T-47D breast
NCI-H23 lung = system: NCI-H23 lung
OVCAR-3 ovarian = system: OVCAR-3 ovarian
HOP-62 NSCLC = system: HOP-62 NSCLC
SK-MEL-5 melanoma = system: SK-MEL-5 melanoma
MCF7 breast = system: MCF7 breast
COLO 205 colon = system: COLO 205 colon
SK-MEL-2 melanoma = system: SK-MEL-2 melanoma
MDA-MB-231 breast = system: MDA-MB-231 breast
SNB-75 CNS = system: SNB-75 CNS
A498 renal = system: A498 renal
DU-145 prostate = system: DU-145 prostate
SF-539 CNS = system: SF-539 CNS
MOLT-4 leukemia = system: MOLT-4 leukemia
OVCAR-4 ovarian = system: OVCAR-4 ovarian
RPMI-8226 leukemia = system: RPMI-8226 leukemia
SK-OV-3 ovarian = system: SK-OV-3 ovarian

O=C(NNC(=O)C1CCN(S(=O)(=O)c2ccc(-c3ccccc3)cc2)CC1)c1ccc(C(F)(F)F)cc1
GI50 (UACC-62 melanoma): > 50 µM | TGI (UACC-62 melanoma): > 50 µM | GI50 (LOX IMVI melanoma): > 50 µM | TGI (LOX IMVI melanoma): > 50 µM | GI50 (BT-549 breast): 44.1 µM | TGI (BT-549 breast): > 50 µM | GI50 (CCRF-CEM leukemia): > 50 µM | TGI (CCRF-CEM leukemia): > 50 µM | GI50 (A549 NSCLC): > 50 µM | TGI (A549 NSCLC): > 50 µM | GI50 (HL-60(TB) leukemia): > 50 µM | TGI (HL-60(TB) leukemia): > 50 µM | GI50 (K-562 leukemia): > 50 µM | TGI (K-562 leukemia): > 50 µM | GI50 (NCI-H460 lung): > 50 µM | TGI (NCI-H460 lung): > 50 µM | GI50 (SF-295 CNS): > 50 µM | TGI (SF-295 CNS): > 50 µM | GI50 (M14 melanoma): 15.9 µM | TGI (M14 melanoma): > 50 µM | GI50 (UACC-257 melanoma): > 50 µM | TGI (UACC-257 melanoma): > 50 µM | GI50 (OVCAR-8 ovarian): 22 µM | TGI (OVCAR-8 ovarian): > 50 µM | GI50 (HT29 colon): > 50 µM | TGI (HT29 colon): > 50 µM | GI50 (UO-31 renal): > 50 µM | TGI (UO-31 renal): > 50 µM | GI50 (U251 CNS): 11.8 µM | TGI (U251 CNS): > 50 µM | GI50 (HOP-92 NSCLC): 2.89 µM | TGI (HOP-92 NSCLC): > 50 µM | GI50 (TK-10 renal): 20.8 µM | TGI (TK-10 renal): > 50 µM | GI50 (HCT-116 colon): 4.77 µM | TGI (HCT-116 colon): 13.2 µM | GI50 (RXF 393 renal): 20.3 µM | TGI (RXF 393 renal): > 50 µM | GI50 (SK-MEL-28 melanoma): > 50 µM | TGI (SK-MEL-28 melanoma): > 50 µM | GI50 (KM12 colon): > 50 µM | TGI (KM12 colon): > 50 µM | GI50 (OVCAR-5 ovarian): > 50 µM | TGI (OVCAR-5 ovarian): > 50 µM | GI50 (SF-268 CNS): > 50 µM | TGI (SF-268 CNS): > 50 µM | GI50 (786-0 renal): 7.21 µM | TGI (786-0 renal): 34.1 µM | GI50 (SNB-19 CNS): 15.4 µM | TGI (SNB-19 CNS): > 50 µM | GI50 (NCI-H522 lung): > 50 µM | TGI (NCI-H522 lung): > 50 µM | GI50 (NCI/ADR-RES ovarian): > 50 µM | TGI (NCI/ADR-RES ovarian): > 50 µM | GI50 (HCT-15 colon): > 50 µM | TGI (HCT-15 colon): > 50 µM | GI50 (HCC-2998 colon): 20.6 µM | TGI (HCC-2998 colon): > 50 µM | GI50 (PC-3 prostate): > 50 µM | TGI (PC-3 prostate): > 50 µM | GI50 (SN12C renal): 21.4 µM | TGI (SN12C renal): > 50 µM | GI50 (NCI-H226 lung): 14.6 µM | TGI (NCI-H226 lung): > 50 µM | GI50 (SW-620 colon): > 50 µM | TGI (SW-620 colon): > 50 µM | GI50 (IGROV1 ovarian): > 50 µM | TGI (IGROV1 ovarian): > 50 µM | GI50 (ACHN renal): > 50 µM | TGI (ACHN renal): > 50 µM | GI50 (HS 578T breast): 38.3 µM | TGI (HS 578T breast): > 50 µM | GI50 (CAKI-1 renal): > 50 µM | TGI (CAKI-1 renal): > 50 µM | GI50 (MDA-MB-435): > 50 µM | TGI (MDA-MB-435): > 50 µM | GI50 (EKVX NSCLC): > 50 µM | TGI (EKVX NSCLC): > 50 µM | GI50 (T-47D breast): 3.99 µM | TGI (T-47D breast): > 50 µM | GI50 (NCI-H23 lung): 14.1 µM | TGI (NCI-H23 lung): > 50 µM | GI50 (OVCAR-3 ovarian): > 50 µM | TGI (OVCAR-3 ovarian): > 50 µM | GI50 (HOP-62 NSCLC): 5.46 µM | TGI (HOP-62 NSCLC): 16.5 µM | GI50 (SK-MEL-5 melanoma): > 50 µM | TGI (SK-MEL-5 melanoma): > 50 µM | GI50 (MCF7 breast): > 50 µM | TGI (MCF7 breast): > 50 µM | GI50 (COLO 205 colon): > 50 µM | TGI (COLO 205 colon): > 50 µM | GI50 (SK-MEL-2 melanoma): > 50 µM | TGI (SK-MEL-2 melanoma): > 50 µM | GI50 (MDA-MB-231 breast): 1.58 µM | TGI (MDA-MB-231 breast): 34.9 µM

CSc1nc(-c2ccccc2)c(C#N)c(=O)[nH]1
TGI (SNB-75 CNS): > 100 µM | TGI (UACC-62 melanoma): > 100 µM | TGI (BT-549 breast): > 100 µM | TGI (CCRF-CEM leukemia): > 100 µM | TGI (A549 NSCLC): > 100 µM | TGI (HL-60(TB) leukemia): > 100 µM | TGI (K-562 leukemia): > 100 µM | TGI (NCI-H460 lung): > 100 µM | TGI (SF-295 CNS): > 100 µM | TGI (M14 melanoma): > 100 µM | TGI (UACC-257 melanoma): > 100 µM | TGI (OVCAR-8 ovarian): > 100 µM | TGI (HT29 colon): > 100 µM | TGI (A498 renal): > 100 µM | TGI (UO-31 renal): > 100 µM | TGI (U251 CNS): > 100 µM | TGI (HOP-92 NSCLC): > 100 µM | TGI (TK-10 renal): > 100 µM | TGI (HCT-116 colon): > 100 µM | TGI (DU-145 prostate): > 100 µM | TGI (RXF 393 renal): > 100 µM | TGI (SK-MEL-28 melanoma): > 100 µM | TGI (KM12 colon): > 100 µM | TGI (OVCAR-5 ovarian): > 100 µM | TGI (SF-539 CNS): > 100 µM | TGI (SF-268 CNS): > 100 µM | TGI (786-0 renal): > 100 µM | TGI (SNB-19 CNS): > 100 µM | TGI (MOLT-4 leukemia): > 100 µM | TGI (NCI-H522 lung): > 100 µM | TGI (NCI/ADR-RES ovarian): > 100 µM | TGI (HCT-15 colon): > 100 µM | TGI (HCC-2998 colon): > 100 µM | TGI (PC-3 prostate): > 100 µM | TGI (SN12C renal): > 100 µM | TGI (OVCAR-4 ovarian): > 100 µM | TGI (NCI-H226 lung): > 100 µM | TGI (SW-620 colon): > 100 µM | TGI (IGROV1 ovarian): > 100 µM | TGI (RPMI-8226 leukemia): > 100 µM | TGI (ACHN renal): > 100 µM | TGI (HS 578T breast): > 100 µM | TGI (CAKI-1 renal): > 100 µM | TGI (SK-OV-3 ovarian): > 100 µM | TGI (MDA-MB-435): > 100 µM | TGI (EKVX NSCLC): > 100 µM | TGI (T-47D breast): > 100 µM | TGI (NCI-H23 lung): > 100 µM | TGI (OVCAR-3 ovarian): > 100 µM | TGI (HOP-62 NSCLC): > 100 µM | TGI (SK-MEL-5 melanoma): > 100 µM | TGI (MCF7 breast): > 100 µM | TGI (COLO 205 colon): > 100 µM | TGI (SK-MEL-2 melanoma): > 100 µM | TGI (MDA-MB-231 breast): > 100 µM
